The values below come from PubChem BioAssay (NCI).

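Cells were grown in 96-well plates and exposed to each compound for 48 hours at five concentrations; endpoints were interpolated linearly between bracketing concentrations, or set to the highest concentration if not reached. Here, GI50 denotes the concentration required for 50% inhibition of growth. TGI denotes the concentration required for complete inhibition of growth.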

Assay in all cases: DTP human tumour cell line panel, 48 h
Experiment [1] relates to CAKI-1 renal.
The test system of experiment [2] is HCC-2998 colon.
In experiment [3] the test system is HS 578T breast.
In experiment [4] the test system is LOX IMVI melanoma.
In experiment [5] the test system is MCF7 breast.
The test system of experiment [6] is NCI-H460 lung.
The test system of experiment [7] is NCI/ADR-RES ovarian.
For experiment [8], the system named is SF-268 CNS.
In experiment [9] the test system is SK-MEL-28 melanoma.
Experiment [10] concerns SNB-75 CNS.

For orientation: TGI means the concentration at which net growth stops. Consider `NC(Cc1ccc(S(=O)(=O)O)cc1)C(=O)NC(Cc1ccc(S(=O)(=O)O)cc1)C(=O)O` (stereo not given), for which the TGI in experiment [1], in [2], in [3], in [4], in experiment [5] and in experiment [6] was more than 100 µM throughout. Further, the TGI in experiment [7], in experiment [8], in experiment [9] and in [10] was more than 100 µM throughout.

On to `COC(OC)[C@@H]1OC[C@@H](O)[C@@H]1n1cnc2c(N)ncnc21`, for which the TGI in experiment [1], in experiment [2], in experiment [3], in experiment [4], in experiment [5] and in experiment [6] was more than 100 µM in each case. Moreover, the TGI in experiment [7], in experiment [8], in [9] and in experiment [10] was more than 100 µM in each case.

Consider `Cc1ccc(NC(=O)C(=O)CC(=O)c2sc(Nc3c(C)cccc3C)nc2C)cc1C`, for which the TGI in experiment [1], in experiment [2], in [3], in experiment [4], in experiment [5] and in experiment [6] was more than 100 µM throughout. The TGI in experiment [7], in [8] and in experiment [9] was more than 100 µM in each case.

For `C[Si](C)(C)C1=C([Si](C)(C)C)C(Cl)(Cl)C1=O`, the TGI in [1] came out at 7.14 µM; in experiment [2], 17.6 µM; in experiment [3], 55.7 µM; in experiment [4], 3.51 µM; in experiment [5], 23.4 µM; in experiment [6], 32.2 µM. Further, the TGI stood at 27.1 µM in experiment [7], 21.1 µM in [8], 9.29 µM in [9] and 24.9 µM in experiment [10].

For the molecule `CC(=O)N1CCn2c1nc1cc(Cl)ccc12`, the TGI in experiment [1], in [2], in experiment [3], in experiment [4], in [5] and in experiment [6] was more than 100 µM each time. The TGI in experiment [7], in experiment [8] and in experiment [9] was more than 100 µM throughout.

In the case of `CC(=O)Oc1ccc(/C=C/C(=O)O[C@@H](C(=O)O)[C@@H](OC(=O)/C=C/c2ccc(OC(C)=O)c(OC(C)=O)c2)C(=O)O)cc1OC(C)=O`, the TGI in [1], in experiment [2], in experiment [3], in experiment [4], in [5] and in experiment [6] was more than 100 µM each time. Besides, the TGI in experiment [7], in experiment [8], in experiment [9] and in experiment [10] was more than 100 µM throughout.

For the molecule `S=C(Nc1ccc2cn[nH]c2c1)Nc1ccc2cn[nH]c2c1`, the TGI in experiment [1], in [2], in experiment [3], in [4], in experiment [5] and in [6] was more than 100 µM throughout. In addition, the TGI in [7], in experiment [8], in [9] and in [10] was more than 100 µM in each case.

Consider `COC(=O)c1ccc(Nc2nc3nc[nH]c3c(=O)[nH]2)cc1`, for which the TGI in experiment [1], in [2], in experiment [3], in experiment [4], in experiment [5] and in experiment [6] was more than 100 µM throughout. Besides, the TGI in [7], in [8], in experiment [9] and in experiment [10] was more than 100 µM in each case.

As to `CCOc1cc(NC(C)=O)ccc1C(=O)NN1C(=O)CSC1c1ccccc1` (stereo not given), the TGI in experiment [1], in [2], in experiment [3], in experiment [4], in experiment [5] and in [6] was more than 100 µM each time. For the same molecule, the total growth inhibition concentration (TGI) in experiment [7], in experiment [8], in experiment [9] and in experiment [10] was more than 100 µM throughout.

`COc1ccc(/C=N/n2cnc3[nH]c(C)c(Cc4ccccc4)c3c2=N)cc1`: the TGI in [1], in [2], in experiment [3], in experiment [5], in [6] and in [7] was more than 100 µM throughout. For the same molecule, the TGI in [8], in [9] and in experiment [10] was more than 100 µM each time.

`CC(=N\N)/C(C)=N/N=C(C)/C(C)=N/N=C(C)/C(C)=N/N`: the TGI in [1], in experiment [2], in experiment [3], in experiment [4], in experiment [5] and in [6] was more than 100 µM throughout. Further, the TGI in experiment [7], in experiment [8], in [9] and in experiment [10] was more than 100 µM each time.

Regarding `CCN(CC)c1ccc(/C=C/C=C2C(=O)NC(=S)NC2=O)cc1`, the TGI was more than 100 µM in experiment [1]; more than 100 µM in experiment [2]; more than 53.7 µM in experiment [3]; more than 100 µM in experiment [4]; more than 100 µM in experiment [5]; more than 100 µM in experiment [6]. The TGI is 41.8 µM in experiment [7], more than 100 µM in experiment [8], more than 100 µM in experiment [9] and more than 100 µM in experiment [10].

As for `CN(C)c1cccc(NC2=NCCO2)c1`, the TGI in [1], in experiment [2], in [3], in experiment [4], in [5] and in experiment [6] was more than 100 µM in each case. Moreover, the TGI in [7], in experiment [8], in experiment [9] and in [10] was more than 100 µM each time.

Turning to `COc1ccc(/C=C/C2=NN(c3cccc(S(=O)(=O)O)c3)C3(C2)SCC(=O)N3c2nc3ccccc3s2)cc1` (stereo not given), the TGI in experiment [1], in [2], in experiment [3], in experiment [4], in [5] and in experiment [6] was more than 100 µM each time. Further, the TGI in experiment [7], in experiment [8], in experiment [9] and in [10] was more than 100 µM throughout.

With `O=[N+]([O-])c1ccc(O)c(/C=N/NC(=S)N2CCCCC2)c1`, the TGI in experiment [1] was 34.4 µM; in experiment [2] it was 34.1 µM; in experiment [3], more than 60 µM; in experiment [4] it was 17.1 µM; in experiment [5], more than 100 µM; in experiment [6], 38.3 µM. Also, the TGI in experiment [7] is 3.85 µM; in [8] it was 24.6 µM; in experiment [9], more than 100 µM; in experiment [10], 33.1 µM.

Regarding `CCOC(=O)Oc1ccc2c(c1)c(=O)c1c(NCCN(CC)CC)ccc3nnn2c31`, the TGI was determined as 2.63 µM in experiment [1]; 17.4 µM in experiment [2]; 22.9 µM in experiment [3]; 4.16 µM in [4]; 12 µM in experiment [5]; 9.44 µM in [6]. Also, the TGI in experiment [7] is 18.9 µM; in [8], 17.1 µM; in experiment [9], 24.1 µM.

Turning to `COc1ccc(C(C2=C(O)COC2=O)c2cc3c(cc2O)OCO3)cc1OC` (stereo not given), the TGI in [1], in experiment [2], in [3], in experiment [4], in [5] and in experiment [6] was more than 100 µM throughout. In addition, the TGI in [7], in [8], in experiment [9] and in experiment [10] was more than 100 µM each time.

As for `CCn1c(SCC(=O)NNC(=S)NC)nc2ccccc2c1=O`, the TGI in experiment [1] is 44.2 µM; in experiment [2], more than 100 µM; in experiment [3], more than 100 µM; in experiment [4] it was more than 100 µM; in [5] it was more than 100 µM; in experiment [6], 45.7 µM. In addition, the TGI in experiment [7], in experiment [8], in experiment [9] and in [10] was more than 100 µM throughout.

For the molecule `O=C(CCc1ccccc1)ON1C(=S)C(c2ccccc2)(c2ccccc2)N=C1Sc1ccccc1`, the TGI is more than 100 µM in [1]; more than 100 µM in experiment [2]; more than 100 µM in experiment [3]; 42.4 µM in experiment [4]; more than 100 µM in experiment [5]; more than 100 µM in experiment [6]. In addition, the TGI in experiment [7], in experiment [8] and in experiment [10] was more than 100 µM in each case.

On to `CC1C(c2ccc(Cl)cc2)c2cc3c(cc2OC1N1CCOCC1)OCO3` (stereo not given), for which the TGI in experiment [1] is 71.5 µM; in experiment [2], more than 100 µM; in [3] it was 70.4 µM; in experiment [4], more than 100 µM; in experiment [5] it was more than 100 µM; in [6], more than 100 µM. Moreover, the TGI in experiment [7], in experiment [8], in [9] and in [10] was more than 100 µM each time.

Turning to `CCc1nc2ccc(NCCN(C)C)c3c(=O)c4ccccc4n1c23`, the total growth inhibition concentration (TGI) was 7.89 µM in [1]; 5.8 µM in experiment [2]; 5.94 µM in [3]; 2.63 µM in experiment [4]; 21.1 µM in experiment [5]; 3.07 µM in [6]. In addition, the TGI in experiment [7] is 3.38 µM; in experiment [8] it was 5.36 µM; in experiment [9], 9.43 µM; in [10] it was 11.9 µM.

One may read the GI50 as the concentration that inhibits growth by half. For `Oc1[nH]c2ccccc2c1/C=c1/cc2c(c(-c3ccc(F)cc3)n1)=Nc1ccccc1-2`, the GI50 is 1.29 µM in experiment [1]; 0.726 µM in experiment [2]; 0.528 µM in [3]; 0.817 µM in experiment [5]; 0.267 µM in experiment [7]; 1.01 µM in experiment [8]. Moreover, the GI50 was 0.777 µM in [9] and 0.227 µM in experiment [10]. Further, the TGI was 5.05 µM in [1]; 2.16 µM in experiment [2]; 3.28 µM in experiment [3]; 2.57 µM in experiment [5]; 1.25 µM in [7]; 9.26 µM in [8]. The TGI worked out at 2.47 µM in experiment [9] and 1.27 µM in experiment [10].

`CCc1ccccc1NNc1cc(=O)[nH]c(=O)[nH]1`: the concentration for total growth inhibition (TGI) in experiment [1] came out at 21.5 µM; in experiment [2] it was 40.1 µM; in experiment [3] it was 68.6 µM; in experiment [4], 29.4 µM; in [5], 39.1 µM; in [6], 52.6 µM. Besides, the TGI was more than 100 µM in [7], 38 µM in [9] and 40.5 µM in [10].

For `COc1ccc(-n2sc3ncccc3c2=O)cc1`, the TGI was more than 100 µM in experiment [2]; 62.8 µM in experiment [3]; more than 100 µM in [4]; 49.1 µM in [5]; more than 100 µM in experiment [6]; 59.6 µM in experiment [7]. For the same molecule, the TGI in [8] is 58.3 µM; in experiment [9] it was 44.3 µM; in [10], 51 µM.

`CC1CC(=O)N(N(C)C)C(C#N)(C#N)C1(C#N)C#N` (stereo not given): the TGI was 5.23 µM in experiment [1]; 34.9 µM in experiment [2]; 59.7 µM in experiment [3]; 42.7 µM in experiment [4]; more than 100 µM in [5]; 55 µM in experiment [7]. The TGI in experiment [8] is more than 58.9 µM; in experiment [9], 34.3 µM; in experiment [10] it was more than 51 µM.

As to `CCOC(=O)Cc1nc2c(N)ncnc2n1C1OC(COC(C)=O)C(OC(C)=O)C1OC(C)=O` (stereo not given), the TGI in experiment [1], in experiment [2], in experiment [3], in [4], in experiment [5] and in experiment [6] was more than 100 µM throughout. Further, the TGI in experiment [7], in experiment [8] and in [9] was more than 100 µM throughout.

Take `N#C[C@H](c1nc2ccccc2s1)c1nc2ccccc2nc1Cl`: the TGI in experiment [1] is more than 100 µM; in experiment [2], 7.09 µM; in experiment [3] it was more than 100 µM; in [5], 24.8 µM; in [6], 47.3 µM; in experiment [7] it was more than 100 µM. Further, the TGI in experiment [9] and in experiment [10] was more than 100 µM in each case.
